Measured values published in patent US9629834B2, “Medicinal composition for inhibiting formation and/or enlargement of cerebral aneurysm or shrinking same” (KYOTO UNIVERSITY, priority 2013, dated 2017).

Key:
[1] = test system: cerebral aneurysm model; assay: Inhibitory effect on formation of cerebral aneurysm in cerebral aneurysm model (EvG staining, size of aneurysm); assay type: in vivo, SD rat; conditions: 5 mL/kg, forced oral, once a day, Day 0 to Day 26
Description: A rat model of cerebral aneurysm was prepared according to the method disclosed on the literature by Hashimoto et al. (Surgical Neurology 1978, Vol. 10, p. 3-8). Namely, 50 mg/kg of pentobarbital was administrated intraperitoneally to a 7-week-old male SD rat, and the left common carotid artery and the left renal artery were ligated by using 10-0 nylon thread under anesthesia (this is referred to as the surgery for inducing cerebral aneurysm). From the day after surgery (Day 1), the rat was reared with being fed a high-salt diet. During a rearing period, the rat was given free access to water. Forced oral administration of 0.03 mg/5 mL or 0.1 mg/5 mL of the suspension of Compound 1 to the cerebral aneurysm model was conducted once a day at a dose of 5 mL/kg from the day after surgery, i.e., 1 day after surgery (Day 1) to 27 days after surgery (Day 27). It should be noted that forced oral administration of the 0.5% MC solution (0 mg/5 mL of the suspension of Compound 1) to the cerebral aneurysm model was conducted once a day at a dose of 5 mL/kg. The group of these rats was defined as a vehicle group. 28 Days after surgery (Day 28), the right olfactory artery/anterior cerebral artery bifurcation containing cerebral aneurysm was extirpated and was fixed with 4% paraformaldehyde, and then the solution was replaced with a 30% sucrose solution, and thereafter, the extirpated bifurcation was frozen to prepare a specimen of a frozen section having a thickness of 5 μm, by similar procedures to the steps 1) and 2) of the method of Reference Example 2. This specimen was subjected to EvG staining and the formation of cerebral aneurysm was confirmed. The size of cerebral aneurysm was measured and evaluation was conducted. The maximum diameter (Maximum) represents the maximum distance between internal elastic lamina disruption sites observed by EvG staining, the height “Height” represents the maximum value of height defined as the length of the perpendicular line drawn from the line connecting the two ends of internal elastic lamina, and the mean diameter “Mean” represents the mean value of the maximum diameter and the height. This evaluation was conducted on all the rats (8 or 9 rats) of each of the groups, and the mean value of each of the groups was calculated. The administration of 0.1 mg/5 mL of a suspension of Compound 2 to the cerebral aneurysm model was started on the day of the surgery (Day 0) at a dose of 5 mL/kg, and forced oral administration was conducted once a day until 26 days after surgery (Day 26). The size of cerebral aneurysm was measured by using the protocol of Example 1. […] The size of cerebral aneurysm was measured by using the protocol of Example 1. […] The size of cerebral aneurysm was measured by using the protocol of Example 1.

[2] = test system: Human carotid artery endothelial cells; assay: Inhibitory action of S1P1 receptor antagonist on inhibitory effect of Compound 1 on permeability of endothelial cells; assay type: cell-based; conditions: antagonist 0.1 nM, 1 nM, 10 nM, or 100 nM with Compound 1 100 nM; FITC-dextran; FIG. 15
Description: Human carotid artery endothelial cells HCtAEC (Cell Applications) were seeded in the upper compartment of Transwell (diameter: 6.5 mm, pore size: 0.4 μm, collagen-Coated: Corning) so that the cell density was 1×10^5 cells/well, and the cells were cultured overnight in MesoEndo Growth Medium (Cell Applications) under a 5% CO2 atmosphere at 37° C. The medium was replaced with Endothelial Cell Serum-Free Defined Medium (Cell Applications), and the cells were further cultured overnight under the CO2 atmosphere at 37° C. Then, Compound 1 was added to the upper compartment and the lower compartment of Transwell so that the final concentration was 0 nM, 0.1 nM, 1 nM, 10 nM, or 100 nM, and the cells were cultured continuously. The well to which Compound 1 was not added was defined as a control. After culturing for 60 minutes, 250 μg/mL of fluorescein isothiocyanate (FITC)-dextran (2,000 kDa: Sigma-Aldrich) was added to the upper compartment of Transwell, and the amount of FITC-dextran which permeated into the lower compartment was determined by measuring the fluorescence intensity of the medium in the lower compartment after 5 minutes, 60 minutes, and 210 minutes. […]
After culturing for 60 minutes, the amount of FITC-dextran which permeated into the lower compartment was determined in a similar manner to Example 6.

Q: Which “formation of cerebral aneurysm (size)” value ([1]; 0.1 mg/5 mL suspension, FIG. 11) does the source give for `Cl.O=C(O)C1CCN(CC2=Cc3ccc(OCc4ccc(OCC(F)(F)F)c(C(F)(F)F)c4)cc3OC2)CC1` [Compound 2, 1-[(7-{[4-(2,2,2-trifluoroethoxy)-3-(trifluoromethyl)benzyl]oxy}-2H-chromen-3-yl)methyl]piperidine-4-carboxylic acid hydrochloride] here?
A: inhibited the formation of cerebral aneurysm

Q: With `Cl.NC(CO)(CO)CCc1ccc(Sc2cccc(OCc3ccccc3)c2)cc1Cl` [Compound 3, 2-amino-2-[2-[4-[3-(benzyloxy)phenylsulfanyl]-2-chlorophenyl]ethyl]propane-1,3-diol hydrochloride] as the molecule, how does the “formation of cerebral aneurysm (size)” value ([1]; 0.01 mg/5 mL suspension, FIG. 12) read?
A: inhibited the formation of cerebral aneurysm

Q: `CCc1cc(/C(C)=N/OCc2ccc(C3CCCCC3)c(C(F)(F)F)c2)ccc1CN1CC(C(=O)O)C1` [Compound 4, 1-[4-[N-[4-cyclohexyl-3-(trifluoromethyl)benzyloxy]-1(E)-iminoethyl]-2-ethylbenzyl]azetidine-3-carboxylic acid] was tested. Which “formation of cerebral aneurysm (size)” value ([1]; 0.3 mg/5 mL suspension, FIG. 13) did it give?
A: inhibited the formation of cerebral aneurysm

Q: `CCn1c(Oc2cccc(N3CCN(C)CC3)c2)nnc1[C@@H](C)NS(=O)(=O)c1ccc2c(Cl)cccc2c1` [Compound At, 5-chloro-N-[(1R)-1-{4-ethyl-5-[3-(4-methylpiperazin-1-yl)phenoxy]-4H-1,2,4-triazol-3-yl}ethyl]naphthalene-2-sulfonamide] was tested. Which “effect on the inhibitory effect of Compound 1 on permeability of endothelial cells” value [2] did it give?
A: inhibited the inhibitory effect of Compound 1 on permeability of endothelial cells in a concentration-dependent manner
